One may read the IC50 as the midpoint of a concentration-inhibition curve.

The assay deals with T1, USP28 (His-tagged USP28-FL-mammalian) (Homo sapiens, UniProt Q96RU2).
T1 construct: Expression of USP28 (1-1077)-TEV-6*His (pTT5 vector); made in house; host or cells: Expi293f cells (pTT5 vector)
T1 sequence (Q96RU2 1-1077): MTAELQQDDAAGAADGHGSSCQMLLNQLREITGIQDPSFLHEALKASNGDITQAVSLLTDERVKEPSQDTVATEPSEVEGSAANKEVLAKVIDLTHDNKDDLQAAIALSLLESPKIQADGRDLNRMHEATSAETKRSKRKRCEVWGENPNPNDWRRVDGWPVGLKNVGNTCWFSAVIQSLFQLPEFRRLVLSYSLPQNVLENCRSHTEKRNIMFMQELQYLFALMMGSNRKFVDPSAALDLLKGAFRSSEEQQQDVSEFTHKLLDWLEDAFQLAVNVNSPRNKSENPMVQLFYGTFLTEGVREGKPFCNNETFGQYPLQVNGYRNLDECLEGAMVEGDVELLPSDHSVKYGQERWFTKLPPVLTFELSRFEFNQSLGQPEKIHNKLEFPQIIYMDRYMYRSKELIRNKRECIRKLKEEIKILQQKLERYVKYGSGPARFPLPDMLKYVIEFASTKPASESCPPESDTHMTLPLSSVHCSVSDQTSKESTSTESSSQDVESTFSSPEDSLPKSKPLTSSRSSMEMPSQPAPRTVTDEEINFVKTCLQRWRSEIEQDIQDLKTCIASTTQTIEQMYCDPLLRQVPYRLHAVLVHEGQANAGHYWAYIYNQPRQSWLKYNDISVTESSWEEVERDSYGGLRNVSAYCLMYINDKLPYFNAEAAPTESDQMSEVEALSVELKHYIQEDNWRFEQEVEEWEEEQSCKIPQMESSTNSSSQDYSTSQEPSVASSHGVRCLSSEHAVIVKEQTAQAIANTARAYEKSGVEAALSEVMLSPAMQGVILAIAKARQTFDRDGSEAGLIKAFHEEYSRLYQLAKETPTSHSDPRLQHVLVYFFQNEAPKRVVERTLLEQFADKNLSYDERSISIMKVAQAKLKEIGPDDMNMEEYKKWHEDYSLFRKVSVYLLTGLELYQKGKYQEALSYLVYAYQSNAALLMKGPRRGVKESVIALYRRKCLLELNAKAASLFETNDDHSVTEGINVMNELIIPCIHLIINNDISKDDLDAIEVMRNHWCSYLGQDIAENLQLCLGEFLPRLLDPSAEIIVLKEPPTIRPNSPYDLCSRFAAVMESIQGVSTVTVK
Briefly: Ubiquitin-Rhodamine 110 Assay for USP28 Activity, Example A-1(a). It counts as biochemical. As to conditions: Ubiquitin-Rhodamine 110 assay, Example A-1(a); read-out: USP28 A-1(a) IC50 range. The method in brief:
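Full-length His-tagged USP28 (1-1077, Expi293F-expressed; […]) was preincubated 30 min with compound (25 μM–1.3 nM, 10-point 3-fold) in 20 mM Tris-HCl pH 8.0, 3 mM BME, 0.03% BGG, 0.01% Triton X-100. Ub-Rh110 (25 nM) was then added for 45 min at room temperature, stopped with citric acid, and read by fluorescence (485/535 nm).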
As to `Cc1nc2sc(C(=O)N[C@H]3CCc4nc(N5CCNCC5)ccc4C3)c(N)c2s1` [Example 23-9], the concentration for half-maximal inhibition (IC50) was in the range of 0.05 to 0.2 µM. For the molecule `Cc1ccc2c(N)c(C(=O)N[C@H]3COc4cc(N5C[C@H]6CCNC[C@H]65)ccc4C3)sc2n1` (single isomer, unassigned) [Example 33-4], the IC50 fell in the range of 0.001 to 0.05 µM.

With `Cc1ccc2c(N)c(C(=O)N[C@H]3COc4cc([C@H]5CCNC[C@H]5F)ccc4C3)sc2n1` [Example 82, 3-amino-N-((R)-7-((3S,4R)-3-fluoropiperidin-4-yl)chroman-3-yl)-6-methylthieno[2,3-b]pyridine-2-carboxamide], the IC50 was 0.001 to 0.05 µM. In the case of `Cc1ccc2c(N)c(C(=O)N[C@H]3COc4c(F)c(N5CCNCC5)c(F)c(F)c4C3)sc2n1` [Example 35, 3-amino-6-methyl-N-[(3R)-5,6,8-trifluoro-7-(piperazin-1-yl)-3,4-dihydro-2H-1-benzopyran-3-yl]thieno[2,3-b]pyridine-2-carboxamide] it was 0.001 to 0.05 µM; in that of `Cc1ccc2c(N)c(C(=O)N[C@H]3COc4cc([C@H]5CCNC[C@H]5O)ccc4C3)sc2n1` [Example 62, 3-amino-N-((R)-7-((3S,4R)-3-hydroxypiperidin-4-yl)chroman-3-yl)-6-methylthieno[2,3-b]pyridine-2-carboxamide], 0.001 to 0.05 µM; in that of `Cc1cnc2c(N)c(C(=O)N[C@H]3COc4cc(N5CCNCC5)c(C#N)c(F)c4C3)sc2n1` [Example 67, (R)-7-amino-N-(6-cyano-5-fluoro-7-(piperazin-1-yl)chroman-3-yl)-3-methylthieno[2,3-b]pyrazine-6-carboxamide], 0.001 to 0.05 µM. `Cc1ccc2c(N)c(C(=O)N[C@H]3COc4cc([C@@H]5CCNC[C@@H]5F)ccc4C3)sc2n1` [Example 83, 3-amino-N-((R)-7-((3R,4S)-3-fluoropiperidin-4-yl)chroman-3-yl)-6-methylthieno[2,3-b]pyridine-2-carboxamide]: the half-inhibitory concentration (IC50) was 0.001 to 0.05 µM. The figure for `Cc1ccc2c(N)c(C(=O)N[C@H]3COc4cc([C@H]5CCNC[C@@H]5O)ccc4C3)sc2n1` [Example 64, 3-amino-N-((R)-7-((3R,4R)-3-hydroxypiperidin-4-yl)chroman-3-yl)-6-methylthieno[2,3-b]pyridine-2-carboxamide] is 0.001 to 0.05 µM; for `O=C(N[C@H]1COc2cc(N3CCNCC3)ccc2C1)c1cnc2c(c1)CC[C@H]2O` [Example 57, (R)-7-hydroxy-N-((R)-7-(piperazin-1-yl)chroman-3-yl)-6,7-dihydro-5H-cyclopenta[b]pyridine-3-carboxamide] it is over 2 µM. The figure for `COC[C@H]1CN(c2ccc3c(n2)CC[C@H](NC(=O)c2sc4nc(C)ccc4c2N)C3)C[C@H]1N` (single isomer, unassigned) [Example 24-2] is 0.05 to 0.2 µM; for `Cc1ccc2c(N)c(C(=O)N[C@@H]3COc4cc(N5CCNCC5)cc(Cl)c4C3)sc2n1` [Example 49, (S)-3-amino-N-(5-chloro-7-(piperazin-1-yl)chroman-3-yl)-6-methylthieno[2,3-b]pyridine-2-carboxamide] it is 0.2 to 2 µM. In the case of `Cc1cnc2c(N)c(C(=O)N[C@H]3COc4c(C#N)c(N5CCNCC5)cc(F)c4C3)sc2n1` [Example 60, (R)-7-amino-N-(8-cyano-5-fluoro-7-(piperazin-1-yl)chroman-3-yl)-3-methylthieno[2,3-b]pyrazine-6-carboxamide] it was 0.05 to 0.2 µM; in that of `Cc1ccc2c(N)c(C(=O)N[C@H]3CCc4nc(N5C[C@@H](N)[C@H](C(F)F)C5)ccc4C3)sc2n1` [Example 25, 3-Amino-N-[(6S)-2-[(3S,4R)-3-amino-4-(difluoromethyl)pyrrolidin-1-yl]-5,6,7,8-tetrahydroquinolin-6-yl]-6-methylthieno[2,3-b]pyridine-2-carboxamide], 0.05 to 0.2 µM; in that of `CCn1ccc2cc(C(=O)N[C@H]3COc4c(F)c([C@@H]5CCNC[C@@H]5O)cc(F)c4C3)nnc21` [Example 84, N-((R)-5,8-difluoro-7-((3R,4S)-3-hydroxypiperidin-4-yl)chroman-3-yl)-7-ethyl-7H-pyrrolo[2,3-c]pyridazine-3-carboxamide], 0.2 to 2 µM. With `CCc1cnc2sc(C(=O)N[C@H]3COc4cc(N5CCNCC5)ccc4C3)c(N)c2n1` [Example 36, (R)-7-amino-2-ethyl-N-(7-(piperazin-1-yl)chroman-3-yl)thieno[2,3-b]pyrazine-6-carboxamide], the IC50 fell in the range of 0.2 to 2 µM. The figure for `Cc1ccc2c(N)c(C(=O)N[C@H]3COc4cc([C@@H]5CCNC[C@H]5O)ccc4C3)sc2n1` [Example 65, 3-amino-N-((R)-7-((3S,4S)-3-hydroxypiperidin-4-yl)chroman-3-yl)-6-methylthieno[2,3-b]pyridine-2-carboxamide] is 0.001 to 0.05 µM; for `Cc1ccc2c(N)c(C(=O)N[C@@H]3COc4cc(N5C[C@H]6CNC[C@@H]6C5)ccc4C3)sc2n1` [Example 44, 3-amino-N-((S)-7-((3aR,6aR)-hexahydropyrrolo[3,4-c]pyrrol-2(1H)-yl)chroman-3-yl)-6-methylthieno[2,3-b]pyridine-2-carboxamide] it is over 2 µM; for `Cc1nc2sc(C(=O)N[C@H]3COc4cc(N5CC6CCC(C5)N6)c(F)cc4C3)c(N)c2s1` [Example 47, N-((3R)-7-(3,8-diazabicyclo[3.2.1]octan-3-yl)-6-fluorochroman-3-yl)-6-amino-2-methylthieno[2,3-d]thiazole-5-carboxamide] it is 0.2 to 2 µM. The figure for `Cc1ccc2c(N)c(C(=O)N[C@H]3COc4cc(N5CC6CNCC(C5)O6)c(F)c(F)c4C3)sc2n1` [Example 79, N-((3R)-7-(9-oxa-3,7-diazabicyclo[3.3.1]nonan-3-yl)-5,6-difluorochroman-3-yl)-3-amino-6-methylthieno[2,3-b]pyridine-2-carboxamide] is 0.001 to 0.05 µM; for `Cc1cnc2c(N)c(C(=O)N[C@H]3COc4cc(N5CC6CCC(C5)N6)c(F)cc4C3)sc2n1` (single isomer, unassigned) [Example 40] it is 0.001 to 0.05 µM; for `Cc1cnc2c(N)c(C(=O)N[C@@H]3COc4cc(N5CC6CCC(C5)N6)c(F)cc4C3)sc2n1` (single isomer, unassigned) [Example 41] it is 0.2 to 2 µM. In the case of `Cc1ccc2c(N)c(C(=O)N[C@@H]3CCc4nc(N5CCNCC5)c(F)cc4C3)sc2n1` (single isomer, unassigned) [Example 30-2] it was 0.2 to 2 µM; in that of `Cc1ccc2c(N)c(C(=O)N[C@H]3COc4cc(N5C[C@@H]6CCNC[C@@H]65)ccc4C3)sc2n1` (single isomer, unassigned) [Example 33-3], 0.001 to 0.05 µM; in that of `Cc1cc(C(F)F)c2c(N)c(C(=O)N[C@H]3COc4cc(N5CC6CNCC(C5)O6)ccc4C3)sc2n1` [Example 88, N-((3R)-7-(9-oxa-3,7-diazabicyclo[3.3.1]nonan-3-yl)chroman-3-yl)-3-amino-4-(difluoromethyl)-6-methylthieno[2,3-b]pyridine-2-carboxamide], 0.001 to 0.05 µM.

In the case of `Cc1ccc2c(N)c(C(=O)N[C@@H]3Cc4ccc(N5CCNCC5)nc4C4(CC4)C3)sc2n1` (single isomer, unassigned) [Example 31-3, 3-amino-6-methyl-N-[(6′S)-2-(piperazin-1-yl)-6′,7′-dihydro-5′H-spiro[cyclopropane-1,8′-quinoline]-6′-yl]thieno[2,3-b]pyridine-2-carboxamide], the IC50 lay within 0.05 to 0.2 µM. The figure for `Cc1ccc2c(N)c(C(=O)N[C@@H]3CCc4nc(N5CCNCC5)ccc4C3)sc2n1` (single isomer, unassigned) [Example 23-8] is 0.05 to 0.2 µM; for `Cc1ccc2c(N)c(C(=O)N[C@H]3CCc4nc(N5CCN[C@@H](C)C5)ccc4C3)sc2n1` (single isomer, unassigned) [Example 23-15] it is 0.001 to 0.05 µM. In the case of `Cc1ccc2c(N)c(C(=O)N[C@H]3COc4cc([C@H]5CCNC[C@@H]5F)ccc4C3)sc2n1` [Example 80, 3-amino-N-((R)-7-((3R,4R)-3-fluoropiperidin-4-yl)chroman-3-yl)-6-methylthieno[2,3-b]pyridine-2-carboxamide] it was 0.001 to 0.05 µM.
